# Reference: patent publication EP0545912B1, “1-Biphenylmethylimidazole derivatives, their preparation and their therapeutic use” (Sankyo Company Limited, priority 1991, dated 1992)
# System: All receptor (pressor response to angiotensin II)
# Test: Evaluation of AII receptor blocking activity by inhibition of pressor response to angiotensin II
# Type: in vivo
# Details: dose inhibiting pressor response to intravenous angiotensin II (50 ng/kg) by fifty percent; anesthetized male Wister-Imamichi rats; test compound i.v., angiotensin II injected two minutes later; 2 min
# Description: Evaluation of All receptor blocking activity by Inhibition of pressor response to angiotensin II
# The biological activity of each compound was assessed by determining the dose required to inhibit the pressor response to intravenous angiotensin II by fifty percent (ID50) in rats. Male Wister-Imamichi rats, each weighing 300 to 400 g, were anesthesized by intraperitoneal injection of 100 mg/Kg of sodium thiobutabarbital [Inactin (trade name)] and two cannulae were inserted: one into the femoral artery for measuring blood pressure and the other into the femoral vein for injecting drugs. Fifty ng/kg of angiotension II were intravenously administered at intervals of about 10 minutes, and the elevation of blood pressure (normally about 50 mmHg) was observed. After constant pressor responses to angiotensin II were obtained, a test compound was intravenously administered. Two minutes later, angiotension II was again injected, and the inhibitory effect of the test compound was estimated. The percent inhibitions of the pressor response to angiotensin II by progressive increase of the test compound was used to calculate the value of ID50. Angiotensin II was used in this test dissolved in 0.5 % bovine serum albumin (BSA) and the test compounds were dissolved in 100% dimethyl sulphoxide (DMSO).
# In addition to the compounds of the invention (which are identified hereafter by the number of the one of the following Examples which illustrates their preparation), we also carried out the same experiment using a prior art compound (identified in the Table as "compound A"), which is 2-[4-(2-butyl-5-chloro-4-chloromethylimidazoll-ylmethyl)phenyl]benzoic acid, which is disclosed in Example 118 of European Patent Publication No. 253 310.
row,Structure (SMILES),ID50
1,"CCCCc1nc(CO)c(C(=O)O)n1Cc1ccc(-c2ccccc2C(=O)O)cc1 [Example 5, 2-Butyl-1-[(2'-carboxybiphenyl-4-yl)methyl]-4-hydroxymethylimidazole-5-carboxylic acid]","0.22 mg/kg, i.v."
2,"CCCCc1nc(C(C)O)c(C(=O)O)n1Cc1ccc(-c2ccccc2C(=O)O)cc1 (stereo not shown) [Example 11, 2-Butyl-1-[(2'-carboxybiphenyl-4-yl)methyl]-4-(1-hydroxyethyl) imidazole-5-carboxylic acid]","0.25 mg/kg, i.v."
3,"CCCc1nc(CO)c(C(=O)O)n1Cc1ccc(-c2ccccc2-c2nnn[nH]2)cc1 [Example 36, 4-Hydroxymethyl-2-propyl-1-{4-[2-(tetrazol-5-yl)phenyl]phenyl}methylimidazole-5-carboxylic acid]","0.0062 mg/kg, i.v."
4,"CCCCc1nc(CO)c(C(=O)O)n1Cc1ccc(-c2ccccc2-c2nnn[nH]2)cc1 [Example 39, 2-Butyl-4-hydroxymethyl-1-{4-[2-(tetrazol-5-yl)-phenyl]phenyl}methylimidazole-5-carboxylic acid]","0.010 mg/kg, i.v."
5,"CCCc1nc(C(C)O)c(C(=O)O)n1Cc1ccc(-c2ccccc2-c2nnn[nH]2)cc1 (stereo not shown) [Example 41, 4-(1-Hydroxyethyl)-2-propyl-1-{4-[2-(tetrazol-5-yl)phenyl]phenyl}methylimidazole-5-carboxylic acid]","0.0063 mg/kg, i.v."
6,"CCCCc1nc(C(C)O)c(C(=O)O)n1Cc1ccc(-c2ccccc2-c2nnn[nH]2)cc1 (stereo not shown) [Example 44, 2-Butyl-4-(1-hydroxyethyl)-1-{4-[2-(tetrazol-5-yl)phenyl]phenyl}methylimidazole-5-carboxylic acid]","0.0082 mg/kg, i.v."
7,"CCCCc1nc(C(C)O)c(C(N)=O)n1Cc1ccc(-c2ccccc2C(=O)O)cc1 (stereo not shown) [Example 45, 2-Butyl-1-[(2'-carboxybiphenyl-4-yl)methyl]-4-(1-hydroxyethyl) imidazol-5-carboxamide]","0.19 mg/kg, i.v."
8,"CCCCc1nc(C(O)CC)c(C(N)=O)n1Cc1ccc(-c2ccccc2C(=O)O)cc1 (stereo not shown) [Example 46, 2 -Butyl-1-[(2'-carboxybiphenyl-4-yl)methyl]-4-(1-hydroxypropyl)imidazole-5-carboxamide]","0.18 mg/kg, i.v."
9,"CCCCc1nc(C(O)C(C)C)c(C(N)=O)n1Cc1ccc(-c2ccccc2C(=O)O)cc1 (stereo not shown) [Example 48, 2-Butyl-1-[(2'-carboxybiphenyl-4-yl)methyl]-4-(1-hydroxy-2-methylpropyl)imidazole-5-carboxamide]","0.064 mg/kg, i.v."
10,"CCCCc1nc(CO)c(C(=O)NCC(=O)O)n1Cc1ccc(-c2ccccc2C(=O)O)cc1 [Example 55, N-Carboxymethyl-2-butyl-1-[(2'-carboxybiphenyl-4-yl)-methyl]-4-hydroxymethylimidazole-5-carboxamide]","0.23 mg/kg, i.v."
11,"CCCCc1nc(C(O)C(C)(C)C)c(C(N)=O)n1Cc1ccc(-c2ccccc2C(=O)O)cc1 (stereo not shown) [Example 59, 2-Butyl-1-[(2'-carboxybiphenyl-4-yl)methyl]-4-(1-hydroxy-2,2-dimethylpropyl)imidazole-5-carboxamide]","0.066 mg/kg, i.v."
12,"CCCc1nc(C(O)C(C)(C)C)c(C(N)=O)n1Cc1ccc(-c2ccccc2C(=O)O)cc1 (stereo not shown) [Example 60, 1-[(2'-Carboxybiphenyl-4-yl)methyl]-4-(1-hydroxy-2,2-dimethylpropyl)-2-propylimidazole-5-carboxamide]","0.134 mg/kg, i.v."
13,"CCCc1nc(C(O)C(C)(C)C)c(C(N)=O)n1Cc1ccc(-c2ccccc2-c2nnn[nH]2)cc1 (stereo not shown) [Example 74, 4-(1-Hydroxy-2,2-dimethylpropyl)-2-propyl-1-{4-[2-(tetrazol-5-yl)phenyl]phenyl}methylimidazole-5-carboxamide]","0.036 mg/kg, i.v."
14,"CCCCc1nc(C(O)C(C)(C)C)c(C(N)=O)n1Cc1ccc(-c2ccccc2-c2nnn[nH]2)cc1 (stereo not shown) [Example 75, 2-Butyl-4-(1-hydroxy-2,2-dimethylpropyl)-1-{4-[2-(tetrazol-5-yl)phenyl]phenyl}methylimidazole-5-carboxamide]","0.11 mg/kg, i.v."
15,"CCCc1nc(C(O)C(C)C)c(C(N)=O)n1Cc1ccc(-c2ccccc2-c2nnn[nH]2)cc1 (stereo not shown) [Example 76, 4-(1-Hydroxy-2-methylpropyl)-2-propyl-1-{4-[2-(tetrazol-5-yl)phenyl]phenyl}methylimidazole-5-carboxamide]","0.022 mg/kg, i.v."
16,"CCCCc1nc(CCl)c(Cl)n1Cc1ccc(-c2ccccc2C(=O)O)cc1 [compound A, 2-[4-(2-butyl-5-chloro-4-chloromethylimidazoll-ylmethyl)phenyl]benzoic acid, reference compound]","3.3 mg/kg, i.v."
